Measured values from ChEMBL document CHEMBL5608224, “Novel KRAS Inhibitors for Treating Non-small Cell Lung Cancer” (ACS Med Chem Lett, 2024).
pIC50: −log10 of the molar value.

Experiment: Inhibition of recombinant GMPPNP-loaded KRAS-G12C mutant (unknown origin) /recombinant GST-tagged RAF RBD (unknown origin) complex assessed as disruption preincubated with KRAS G12C for 20 mins followed by RAF addition and measured after 20 mins by HTRF assay
Design: species or system Homo sapiens

pIC50 | Compound
7.80 | CN1CCC[C@H]1COc1nc(N2CCN(C(=O)/C(F)=C/c3nccs3)[C@@H](CC#N)C2)c2ccc(-c3cc(O)cc4ccccc34)c(F)c2n1
7.96 | N#CC[C@H]1CN(c2nc(OC[C@@]34CCCN3C[C@H](F)C4)nc3c(F)c(-c4cc(O)cc5ccccc45)ccc23)CCN1C(=O)/C(F)=C/c1ncccn1
7.70 | C#Cc1cccc2cccc(-c3ccc4c(N(C)[C@@H]5CCN(C(=O)/C(F)=C/c6ccccn6)C5)nc(OC[C@@]56CCCN5C[C@H](F)C6)nc4c3F)c12
8.00 | CN1CCC[C@H]1COc1nc(N2CCN(C(=O)/C(F)=C/c3ncccn3)[C@@H](CC#N)C2)c2ccc(-c3cc(O)cc4ccccc34)c(F)c2n1
8.70 | C#Cc1c(F)ccc2cc(O)cc(-c3ccc4c(N5CCN(C(=O)/C(F)=C/c6nccs6)CC5)nc(OC[C@@]56CCCN5C[C@H](F)C6)nc4c3F)c12
8.19 | C#Cc1c(F)ccc2cc(O)cc(-c3ccc4c(N5CCN(C(=O)/C(F)=C/c6ccccn6)CC5)nc(OC[C@@]56CCCN(C)[C@]5(C)CCC6)nc4c3F)c12
